Laboratory results as given in article PMC12036875, “Mitochondria-targeting natural product rhein conjugated with dichloroacetate as the dual inhibitor of glycolysis and oxidative phosphorylation to off energize cancer cells and induce ROS storm” (Theranostics, 2025).

Experiments:
4T1 cells = assay: Immunogenic cell death detection in vitro (HMGB1, CRT, extracellular ATP); assay type: cell-based, Mouse
From the text: It is known that mitochondrial dysfunction occasioned by ROS triggers immunogenic cell death (ICD), characterized by the release of DAMPs from tumor cells, such as high mobility group box 1 (HMGB1), calreticulin (CRT) and ATP. These DAMPs directly reactivated anti-tumor immune response of TAMs of in vivo [33]. Given the encouraging results of ROS generation, the ICD effect of Rhein-DCA conjugate was consequently explored in vitro. HMGB1 is a type of nuclear protein, which would be released to extracellular during the ICD process. […] This was because rhein, DCA, and the R + D cannot induce adequate production of ROS and sufficient ATP depletion (Figure 5F). We further detected the HMGB1 content in the cell culture media with an ELISA kit. […] This further confirmed that Rhein-DCA effectively promoted the release of HMGB1 from the cell nucleus to the extracellular space (Figure S20). Unlike HMGB1, abundant CRT often exposed on the cell membrane surface of tumor cells. Flow cytometry was employed to analyze CRT protein of 4T1 cells. […] The secreted ATP from 4T1 cells with immunogenicity was further measured to evaluate the ICD effect after being cultured with various drugs for 6, 12 and 24 h. […] There was no apparent distinction between rhein, DCA, R + D groups and the control group when co-cultured for 6 or 12 h. A slight difference was observed until the cultivation time was prolonged to 24 h. […] This reminded us that the Rhein-DCA conjugate may enhance tumor treatment by promoting ICD-mediated immunotherapy.
4T1 cells were seeded in 6-well plates and confocal dishes with an identical density of 10 × 10^4 cells per well for 24 h cultivation. The cells were processed with indicated drugs at a concentration of 6.25 μM for another 24 h. The cells were washed twice with PBS and then fixed with 4%-paraformaldehyde (1 mL) for 15 min at 37 °C, followed by two washes with PBS. (1) The cells on confocal dishes were next permeabilized with triton-X-100 for 15 min at room temperature, blocked with BSA solution (5% in PBS) for 1 h at room temperature, and further incubated with rabbit anti-mouse HMGB-1 (1:500) overnight at 4 °C. Afterwards, the cells were incubated with secondary antibody (1:500) for 1 h at room temperature, washed with PBS, and then stained with Hoechst 33342 (10 μg/mL) for 10 min in the dark at room temperature. Finally, confocal microscope was employed to observe the HMGB1 protein within the cells. The secretion of HMGB1 in culture medium was detected by ELISA assay. The culture media was collected and centrifuged at 1000 G for 20 min, the supernatant was collected and detected with ELISA kit according to the manufacturer's protocol. (2) The cells in the 6-well plates were collected in 1.5 mL tubes, stained with rabbit anti-mouse calreticulin (1:1000) for 30 min at 4 °C, washed twice with PBS, and then analyzed with flow cytometry. (3) For the extracellular ATP content, the cells were cultured for 6, 12 and 24 h at 37 °C, and the medium were collected and centrifuged at 1000 G for 20 min, the supernatant was collected and detection with ELISA kit according to the manufacturer's protocol.

4T1 tumor tissue = assay: Lactate detection in tumor tissue (ELISA); assay type: in vivo, Balb/c mice; conditions: 20 mg/kg oral, 24 days
From the text: The TAMs are the prominent components in the TEM and play a critical role in tumoral immunosuppression. Repolarization of protumor M2 phenotype into antitumor M1 phenotype is promising for malignant tumors. On the one hand, as a key metabolite fueling M2 polarization, lactate is very important in modulating the polarization state of macrophages within the tumor microenvironment. To verify that Rhein-DCA conjugate reprogrammed the metabolism of cells on solid tumors, we analyzed the expression of pPDHA1-Ser^293 protein in tumor tissues with immunohistochemical staining (IHC) (Figure 7A). […] The end product lactate of glycolysis decreased 20%, consistent with DCA's ability to reverse the Warburg effect. […] On the other hand, the ICD behavior of cancer cells also can activate TAMs into M1 polarization. Then, the release of HMGB1 was evaluated to assess the ICD effect in vivo with immunofluorescence staining (IF) (Figure 7C).
Tumor tissues were collected and homogenized in ice-cold PBS (1:10, w/v). The tissue was disrupted using sonication in ice bath (power 400 W, the duration of sonication is 3 s, the interval duration of 3 s, total sonication time of 20 min). The homogenate was centrifuged at 5000 G for 10 min at 4 °C to obtain the supernatant. The lactate content was analyzed with a lactate ELISA kit according to the manufacturer's protocol. The results were normalized to the weight of the tumor and reported as µmol lactate/g tissue.

[1] = system: Cyt C protein in 4T1 cells; assay: Western blot of Cyt C; assay type: cell-based, Mouse; conditions: 6.25 μM, 24 h
Description: The opening of mPTP in mitochondria often leads to the release of pro-apoptotic factor such as cytochrome C (Cyt C), thereby inducing apoptosis. Western blot was applied to measure the level of Cyt C in 4T1 cells after treatment with different drugs. The ratio of the integrated density value of target Cyt C protein to the internal parameter β-actin protein was also analyzed (Figure 4B). […] The released Cyt C in the rhein and R + D groups was 4.4- and 5.0-fold than that of the control group, respectively, clarifying that rhein component could boost the release of Cyt C in 4T1 cells.
(§1) 4T1 cells were seeded in 6-well plates at a density of 20 × 10^4 cells per well and cultured for 24 h. Then the cells were treated with rhein, DCA, R + D and Rhein-DCA conjugate, each at a concentration of 6.25 μM for 24 h. Cells were washed twice with PBS and lysed by RIPA total protein extraction solution containing multiple protease inhibitors for 30 min while being maintained on ice. The lysate was centrifuged at 9391 G for 10 min at 4 °C to obtain the total protein solution. The concentrations of total protein were determined with BCA Protein Assay Kit. The protein was further denatured with 5 × protein loading buffer at 100 °C for 15 min. Sodium dodecyl sulfate polyacrylamide gel electrophoresis was conducted to separate the protein and transferred it to PVDF membranes. The PVDF membranes were blocked with 5% skim milk for 30 min at room temperature and incubated with indicated primary antibodies: Anti-Cytochrome C Rabbit pAb (1:1000); Anti-β-actin Rabbit pAb (1:1000); or Anti-PDHA1 Rabbit mAb (phosphoS^293) (1:1000) overnight at 4 °C. The membranes were incubated with HRP conjugated Goat Anti-Rabbit IgG (H+L) (1:5000), respectively, for 30 min at room temperature and then analyzed by chemiluminescence (Clinx,6100).

[2] = system: phospho-Ser^293 PDHA1 protein in 4T1 cells; assay: Western blot of phospho-Ser293 PDHA1; assay type: cell-based, Mouse; conditions: 6.25 μM, 24 h, vs control
Description: Then, the phospho-Ser^293 PDHA1 protein level in 4T1 cells, which is regulated by PDK1, was further analyzed with western blot (Figure 2C). […] The conjugate successfully altered glycolysis of 4T1 cells via PDK-PDH axis.
as §1

**Q.** For O=C(O)c1cc(O)c2c(c1)C(=O)c1cccc(O)c1C2=O [Rhein, 4,5-dihydroxyanthraquinone-2-carboxylic acid], which “HMGB1 in cell nucleus (CLSM red fluorescence)” value (shortened to “HMGB1 in cell nucleus”) (4T1 cells; 6.25 μM, 24 h) is on record?
**A.** almost completely located in nuclei

**Q.** What about the “tumor lactate level, in words” value (4T1 tumor tissue) of the same compound?
**A.** reduced tumor lactate levels

**Q.** And the “released Cyt C relative to control group (Cyt C/β-actin)” value [1]?
**A.** 4.4 fold

**Q.** What about the “phospho-Ser293 PDHA1 protein level (western blot)” value (shortened to “phospho-Ser293 PDHA1 protein level”) [2] of the same compound?
**A.** no obvious down-regulated trend

**Q.** How did the “HMGB1 in cell nucleus” value (4T1 cells; 6.25 μM, 24 h) turn out when O=C(OCCOC(=O)C(Cl)Cl)c1cc(O)c2c(c1)C(=O)c1cccc(O)c1C2=O [Rhein-DCA] was run?
**A.** disappeared

**Q.** What about the “surface-exposed CRT” value (4T1 cells; 6.25 μM, 24 h, flow cytometry) of the same compound?
**A.** 44%

**Q.** And the “HMGB1 secreted into the culture medium (ELISA)” value (4T1 cells; 6.25 μM, 24 h, vs control, rhein, DCA, R + D)?
**A.** increased significantly

**Q.** And the “extracellular ATP in supernatants” value (4T1 cells; 6 h to 24 h, vs other groups)?
**A.** higher

**Q.** What about the “tumor lactate level as percentage of the vehicle group” value (4T1 tumor tissue) of the same compound?
**A.** 44%

**Q.** What about the “released Cyt C, in words” value [1] of the same compound?
**A.** more Cyt C than rhein and R + D groups

**Q.** What about the “phospho-Ser293 PDHA1 protein level” value [2] of the same compound?
**A.** lowest expression

**Q.** For O=C(O)C(Cl)Cl [DCA, Dichloroacetate], which “HMGB1 in cell nucleus” value (4T1 cells; 6.25 μM, 24 h) is on record?
**A.** almost completely located in nuclei

**Q.** And the “decrease of tumor lactate” value (4T1 tumor tissue; vs vehicle)?
**A.** 20%

**Q.** And the “released Cyt C, in words” value [1]?
**A.** could almost be disregarded

**Q.** And the “phospho-Ser293 PDHA1 protein level” value [2]?
**A.** slightly downregulation
